Key:
[1] = Plasma protein binding (rapid equilibrium dialysis); type: in vitro ADME, mice; conditions: mouse, plasma, mice plasma protein binding (footnote); RED, 10 µg/mL, four hours, 37 °C; read-out: PPB (% Bound) (converted)
[2] = Cytotoxicity, MTT colorimetric microculture assay; type: cell-based; conditions: mouse, HEI-OC1 cells (auditory cell line), NCI criterion of cytotoxicity IC50 < 20 μg/mL
Description: The cytotoxicity of Qx-294 and Qx-301 compounds was assessed in the mouse auditory HEI-OC1 cell line using the (MTT) colorimetric microculture assay method as previously described. HEI-OC1 cells were cultured in DMEM (Corning, NY, USA, 10-013-CVC) supplemented with 10% fetal bovine serum (FBS) (Pansera) and 50 μg/mL ampicillin for 12 h. For cytotoxic assessment, increasing concentrations of Qx-294 and Qx-301 were added to a HEI-OC1 cell suspension (5 × 10^4 cells/well). Cell growth was determined 72 h later by adding 50 µL of MTT (2.5 mg/mL). This was reduced by mitochondrial dehydrogenase of viable cells in an insoluble blue formazan product during the 4 h contact period at 37 °C. After the supernatant was removed, the formazan crystals were solubilized by adding DMSO (100 µL). These plates were read at 570 nm with SpectraMax® M Series Multi-Mode Microplate Reader with Soft Max Pro 7.2 GxP Software (Molecular Devices, Sunnyvale, CA, USA). At each dose level of the compounds tested, as well as the untreated (vehicle-only) controls, absorbance values were recorded and compared between different treatment and time points to assess cell growth and viability.

HEI-OC1 cells = assay: TACS MTT cell proliferation / metabolic activity assay in HEI-OC1; type: cell-based, mouse; conditions: for Metabolic activity throughout all concentrations: 0.1–100 μM, throughout all concentrations and cell lines; for Proliferative effect vs Qx-70 and untreated cells: HEI-OC1, TACS MTT
Description: HEI-OC1 cells derived from the mouse OC (kindly provided by Dr. F. Kalinec) were cultured under permissive conditions (33 °C, 10% CO2) as described in [22]. Additionally, we assessed the activity of Qx-derived compounds in the mouse neuroblastoma cell line, Neuro-2A, and the human fibrosarcoma HT-1080 (ATCC, Manassas, VA, USA) following the standard cell culture guidelines provided by the vendor.
In vitro cell proliferation effects of all ten initial compounds (Figure 1A,B) were tested on HEI-OC1, Neuro-2A and HT-1080 cells by TACS® 3-(4,5-dimethylthiazol-2-yl)-2,5-diphenyltetrazolium bromide (MTT) Cell Proliferation Assay (R&D Systems, Minneapolis, MN, USA, 4890-025-K), following the manufacturer’s protocol. Absorbance was measured with SpectraMax® M Series Multi-Mode Microplate Reader with Soft Max Pro 7.2 GxP Software (Molecular Devices, Sunnyvale, CA, USA), and the average OD in control cells was taken as 100% of viability. Upon selecting the most viable compounds (Qx-294 and Qx-301), we proceeded with in vivo experiments. For zebrafish treatment, animals were incubated for varied times with different concentrations (50, 100, 150, 200, 250, and 300 μg/mL) of Qx-294 or Qx-301 diluted in swimming (E3) media or administered via IP injections. Mice treatment followed the same procedures as described in [18]. Following treatment, animals or tissue samples were incubated in Click-it EdU or Click-it Plus TUNEL kits (Thermo Scientific, Waltham, MA, USA), following the manufacturer’s instructions to label proliferating and apoptotic cells, respectively.

mouse auditory function = assay: Distortion product otoacoustic emissions (DPOAE); type: in vivo, mice (Mus musculus); conditions: for Frequencies at which DPOAE threshold improvement was statistically significant: 72 h group, p < 0.05; for Frequencies at which DPOAE threshold improvement was statistically significant / DPOAE thresholds at higher frequencies vs control: Two-Way ANOVA; for DPOAE vs control, 24 h treatment / DPOAE thresholds at higher frequencies vs control: C57BL/6J mice; for DPOAE vs control, 24 h treatment: 24 h post-treatment; for DPOAE thresholds at higher frequencies vs control: p < 0.01
Description: C57BL/6J male and female mice between postnatal day 24 and 30 P-24-30) were randomized into control and experimental groups (9 mice per group per compound), with each experimental group receiving a single intraperitoneal (IP) injection of Qx-294 or Qx-301 at a dose of 300 mg/kg body weight, dissolved in dimethyl sulfoxide (DMSO). Controls consisted of treatment with DMSO alone (vehicle). A total of 90 adult wild-type C57/BL6 mice were used in this study. Based on the analysis, animals were examined at various times following treatment as described below.
Mice from all groups underwent auditory brainstem response (ABR) and distortion product otoacoustic emissions (DPOAEs) tests before the initiation of treatment with either compounds or vehicle, and at 24, 48, and 72 h post-treatment, as described below. After audiometric testing, pre-treatment mice were placed in a warm and clean cage and monitored until they were awake and able to remain upright in a sternal position. Alternatively, post-treatment mice had their cochleae processed for histological examination.
Methods for recording distortion product otoacoustic emissions (DPOAEs) were similar to those previously described. Stimuli for DPOAEs were generated and controlled with modules from TDT. Pure tone frequencies (f1, f2, f2/f1 ratio ¼ 1.25), at equal levels (L1 ¼ L2 ¼ 60 dBSPL), 150 ms duration, were generated with independent sources (TDT RX6 processor) and routed through separate drivers to mix acoustically in the ear canal (via plastic tubing placed securely at the external acoustic meatus). Stimuli were calibrated in a 0.1 mL coupler, which simulates the volume of the mouse ear canal. Stimulus frequencies for the primaries are such that geometric mean (GM ¼ (f1 x f2)0.5) frequencies ranged from 6.0 to 48.5 kHz (at least eight frequencies per octave). Ear canal sound pressure levels were recorded using a low-noise probe microphone (Etymotic ER 10Bþ). The microphone output was amplified and fed into the TDT RX6 processor for digital sampling, spectral averaging, and fast Fourier transform (FFT) processing. The amplitude of f1, f2, and the cubic difference distortion product (2f1–f2) were measured from the FFT waveform. The noise floor was measured from the amplitudes in the fifth and twelfth frequency bins above and below (±60 and 120, resp.) the 2f1-f2 component. For statistical comparison (Two-Way ANOVA), the mean DPOAE amplitude across all tested primary frequency pairs was calculated and compared between treatment and control groups.

## c1ccc2nc(N3CCCC3)cnc2c1 [Qx-301, 2-(pyrrolidine)-quinoxaline]
[1]
  fraction unbound at 4 h, 10 µg/mL: ~0.68
[2]
  IC50 at 72 h: > 20 µg/mL
HEI-OC1 cells
  Metabolic activity throughout all concentrations: elevated yet stable metabolic activity
  Proliferative effect vs Qx-70 and untreated cells: significant and reproducible proliferative effects greater than those of Qx-70 and the untreated cells
Mouse auditory function
  Frequencies at which DPOAE threshold improvement was statistically significant: above 22.6 kHz
  DPOAE vs control, 24 h treatment: no statistically significant differences
  DPOAE thresholds at higher frequencies vs control: significantly lower than those of the control group

## c1ccc2nc(N3CCOCC3)cnc2c1 [Qx-294, 2-(morpholine)-quinoxaline]
[1]
  fraction unbound at 4 h, 10 µg/mL: 0.115
[2]
  IC50 at 72 h: > 20 µg/mL
HEI-OC1 cells
  Metabolic activity throughout all concentrations: elevated yet stable metabolic activity
  Proliferative effect vs Qx-70 and untreated cells: significant and reproducible proliferative effects greater than those of Qx-70 and the untreated cells
Mouse auditory function
  Frequencies at which DPOAE threshold improvement was statistically significant: above 16 kHz
  DPOAE vs control, 24 h treatment: no statistically significant differences
  DPOAE thresholds at higher frequencies vs control: significantly lower than those of the control group
